Assays:
[1] = target: 72 kDa type IV collagenase (Homo sapiens, UniProt P08253); test: (§1) Activity Assay: Stock solution of substrate (Mca-Lys-Pro-Leu-Gly-Leu-Dpa-Ala-Arg-NH2) was prepared in DMSO at a concentration of 6 mM. Assays were performed in an assay buffer (50 mM Tris pH 7.5, 300 mM NaCl, 10 uM ZnSO4, 5 mM CaCl2, 0.005% Brij-35). The final DMSO concentration in all assays was 1.0%. […] The assays were carried out at 37° C. The fluorescence changes, resulting from the substrate cleavage, were detected using excitation at 340 nm and emission wavelength of 405 nm using a Wallac 1420 Microplate Reader. The reaction mixtures were preincubated with the inhibitors for 30 minutes. The reactions were started by the addition of MMP substrate, and the fluorescence intensity changes were measured after 60 minutes. The obtained fluorescence values were normalized and % inhibition values calculated. Dose response curves were determined from 6 concentration points using three fold dilution steps, each concentration point was determined in dupllicate. IC50 values were calculated from the dose response curves.
72 kDa type IV collagenase, sequence (P08253 whole entry): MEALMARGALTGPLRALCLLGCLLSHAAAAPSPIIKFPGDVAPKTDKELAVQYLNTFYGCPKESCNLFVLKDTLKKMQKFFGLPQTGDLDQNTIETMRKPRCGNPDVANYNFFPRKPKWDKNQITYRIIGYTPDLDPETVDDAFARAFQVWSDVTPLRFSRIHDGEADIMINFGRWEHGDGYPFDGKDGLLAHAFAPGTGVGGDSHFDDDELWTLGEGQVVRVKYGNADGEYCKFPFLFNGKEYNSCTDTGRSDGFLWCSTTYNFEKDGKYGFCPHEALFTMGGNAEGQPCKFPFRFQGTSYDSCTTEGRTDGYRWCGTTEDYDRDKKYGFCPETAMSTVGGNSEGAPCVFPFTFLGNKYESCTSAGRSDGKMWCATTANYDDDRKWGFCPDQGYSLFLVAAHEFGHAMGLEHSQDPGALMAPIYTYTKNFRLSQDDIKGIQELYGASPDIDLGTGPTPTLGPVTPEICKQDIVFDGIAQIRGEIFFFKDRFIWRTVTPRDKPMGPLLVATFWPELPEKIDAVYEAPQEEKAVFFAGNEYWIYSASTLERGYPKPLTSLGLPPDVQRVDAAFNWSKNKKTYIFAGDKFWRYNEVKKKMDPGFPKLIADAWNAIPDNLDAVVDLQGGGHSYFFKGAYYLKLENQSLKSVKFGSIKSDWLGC

Interstitial collagenase = target: T1, Interstitial collagenase (Homo sapiens, UniProt P03956); test: as §1
T1 sequence (P03956 whole entry): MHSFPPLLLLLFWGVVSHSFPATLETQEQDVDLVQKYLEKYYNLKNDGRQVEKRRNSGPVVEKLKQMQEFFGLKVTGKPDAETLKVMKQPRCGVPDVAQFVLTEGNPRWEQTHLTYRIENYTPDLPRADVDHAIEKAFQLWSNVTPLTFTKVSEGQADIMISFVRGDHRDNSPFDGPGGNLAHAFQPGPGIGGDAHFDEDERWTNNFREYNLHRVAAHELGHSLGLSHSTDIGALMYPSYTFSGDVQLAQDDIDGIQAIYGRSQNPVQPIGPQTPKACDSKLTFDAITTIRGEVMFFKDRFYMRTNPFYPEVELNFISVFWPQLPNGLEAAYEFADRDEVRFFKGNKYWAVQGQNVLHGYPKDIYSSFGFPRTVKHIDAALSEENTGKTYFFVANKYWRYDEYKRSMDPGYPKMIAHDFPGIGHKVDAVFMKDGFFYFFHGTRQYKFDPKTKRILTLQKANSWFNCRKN

[2] = target: Matrix metalloproteinase-9 (Homo sapiens, UniProt P14780); test: as §1
Matrix metalloproteinase-9, sequence (P14780 whole entry): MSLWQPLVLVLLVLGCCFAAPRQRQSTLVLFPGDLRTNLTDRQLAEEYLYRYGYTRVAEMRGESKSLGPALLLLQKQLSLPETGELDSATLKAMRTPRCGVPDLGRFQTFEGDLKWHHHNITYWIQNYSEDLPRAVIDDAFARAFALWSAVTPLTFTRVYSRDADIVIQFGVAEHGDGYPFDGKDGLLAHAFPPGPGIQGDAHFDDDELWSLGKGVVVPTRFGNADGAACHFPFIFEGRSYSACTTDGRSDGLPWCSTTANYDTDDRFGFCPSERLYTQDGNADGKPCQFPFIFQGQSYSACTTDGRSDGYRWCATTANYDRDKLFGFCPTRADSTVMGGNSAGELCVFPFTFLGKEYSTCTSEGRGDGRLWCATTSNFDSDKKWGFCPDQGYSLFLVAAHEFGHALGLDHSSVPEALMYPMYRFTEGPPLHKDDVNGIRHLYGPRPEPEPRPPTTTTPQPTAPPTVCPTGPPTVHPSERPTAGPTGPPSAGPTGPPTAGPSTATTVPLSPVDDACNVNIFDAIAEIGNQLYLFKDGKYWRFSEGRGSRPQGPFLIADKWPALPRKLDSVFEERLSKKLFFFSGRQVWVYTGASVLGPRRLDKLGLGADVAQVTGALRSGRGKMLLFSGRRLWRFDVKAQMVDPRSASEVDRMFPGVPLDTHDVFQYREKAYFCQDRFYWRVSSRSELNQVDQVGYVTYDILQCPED

Collagenase 3 = Collagenase 3 (Homo sapiens, UniProt P45452); test: as §1, with “The fluorescence changes, resulting from the substrate cleavage, were detected using excitation at 340 nm and emission wavelength of 405 nm using a Wallac 1420 Microplate Reader.” left out

| IC50 [1] | IC50 (Interstitial collagenase) | IC50 [2] | IC50 (Collagenase 3) | Structure (SMILES) |
| --- | --- | --- | --- | --- |
| > 500 µM | 280 µM | 140 µM | 27 µM | CCOC(=O)c1csc(CN(Cc2ccc(F)cc2)Cc2ccc(OCc3ccccc3)cc2)n1 |
| 26 µM |  | 10 µM | 1.76 µM | O=C(O)c1csc(CN(Cc2ccc(OCc3ccccc3)cc2)CC(c2ccccc2)c2ccccc2)n1 |

— ChEMBL document CHEMBL5725232, “Inhibitors of matrix metalloproteinases” (2016)
